In ChEMBL document CHEMBL1201862, “PubChem BioAssay data set” (2004):
Calls of active or inactive are those of the source.

Tests used:
Protein Wnt-3a = Protein Wnt-3a (Mus musculus, UniProt P27467); test: antagonism of Wnt3a pathway luciferase reporter – Wnt-LIGHT cells, luminescence, selectivity assay for Gli-SUFU antagonist project, dose response (AID 651570); format: functional; settings: read-out: IC50_Mean;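 note: Wnt-LIGHT reporter cells stimulated with conditioned medium from Wnt3a-producing cells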
Protein Wnt-3a, sequence (P27467 whole entry): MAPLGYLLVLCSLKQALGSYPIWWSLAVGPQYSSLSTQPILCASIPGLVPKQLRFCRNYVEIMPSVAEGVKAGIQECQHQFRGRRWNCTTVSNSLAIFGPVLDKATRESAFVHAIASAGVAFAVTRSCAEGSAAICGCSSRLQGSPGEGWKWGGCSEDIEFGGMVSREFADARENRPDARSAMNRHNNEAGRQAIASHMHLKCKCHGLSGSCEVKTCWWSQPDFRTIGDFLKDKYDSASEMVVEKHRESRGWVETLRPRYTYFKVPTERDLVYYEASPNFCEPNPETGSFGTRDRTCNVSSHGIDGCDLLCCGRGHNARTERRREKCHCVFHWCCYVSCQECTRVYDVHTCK

[1] = molecular target: T1, Probable nicotinate-nucleotide adenylyltransferase (Staphylococcus aureus (strain N315), UniProt P65502); format: functional, Staphylococcus aureus subsp. aureus N315;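 for IC50 Mean: confirmatory dose-response retesting of NadD inhibitor hits first found in an ultra-high-throughput screen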
T1 sequence (P65502 whole entry): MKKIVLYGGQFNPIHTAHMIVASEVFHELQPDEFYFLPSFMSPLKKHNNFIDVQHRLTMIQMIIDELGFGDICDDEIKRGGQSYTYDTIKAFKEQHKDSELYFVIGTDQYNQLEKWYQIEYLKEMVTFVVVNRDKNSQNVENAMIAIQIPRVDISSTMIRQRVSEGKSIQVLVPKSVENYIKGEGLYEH

[2] = molecular target: T1, Probable nicotinate-nucleotide adenylyltransferase; format: functional, Staphylococcus aureus subsp. aureus N315; settings: read-out: IC50_Mean
[3] = molecular target: T2, Heat shock factor protein 1 (Mus musculus, UniProt P38532); test: decrease of HSF1-responsive luciferase luminescence – cell-based, NIH3T3, dose retest, confirmation (AID 2382); format: functional;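 note: NIH3T3 fibroblasts with HSF1-driven luciferase reporter stressed by proteasome inhibitor MG132; luminescence from HSF1-driven luciferase expression after 8 hours of MG132 stress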
T2 sequence (P38532 whole entry): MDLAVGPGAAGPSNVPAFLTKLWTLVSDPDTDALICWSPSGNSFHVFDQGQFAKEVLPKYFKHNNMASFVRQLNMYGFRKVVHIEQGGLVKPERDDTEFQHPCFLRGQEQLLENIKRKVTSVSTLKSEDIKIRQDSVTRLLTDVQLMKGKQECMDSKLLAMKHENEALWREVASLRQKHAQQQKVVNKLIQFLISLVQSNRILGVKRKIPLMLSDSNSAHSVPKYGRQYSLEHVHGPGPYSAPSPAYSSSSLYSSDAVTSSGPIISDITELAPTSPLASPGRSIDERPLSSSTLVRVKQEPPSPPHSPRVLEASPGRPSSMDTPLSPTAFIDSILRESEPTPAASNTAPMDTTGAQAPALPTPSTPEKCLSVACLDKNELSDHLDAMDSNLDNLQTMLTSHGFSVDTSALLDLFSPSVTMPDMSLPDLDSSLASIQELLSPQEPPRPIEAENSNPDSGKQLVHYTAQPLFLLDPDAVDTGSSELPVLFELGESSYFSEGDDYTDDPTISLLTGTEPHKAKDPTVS

[4] = molecular target: T3, DNA repair and recombination protein RAD54-like (Homo sapiens, UniProt Q92698); test: RAD54 Holliday junction migration blockers – biochemical, fluorescence, cherry-picked samples, dose series, confirmation (AID 651657); format: functional
T3 sequence (Q92698 whole entry): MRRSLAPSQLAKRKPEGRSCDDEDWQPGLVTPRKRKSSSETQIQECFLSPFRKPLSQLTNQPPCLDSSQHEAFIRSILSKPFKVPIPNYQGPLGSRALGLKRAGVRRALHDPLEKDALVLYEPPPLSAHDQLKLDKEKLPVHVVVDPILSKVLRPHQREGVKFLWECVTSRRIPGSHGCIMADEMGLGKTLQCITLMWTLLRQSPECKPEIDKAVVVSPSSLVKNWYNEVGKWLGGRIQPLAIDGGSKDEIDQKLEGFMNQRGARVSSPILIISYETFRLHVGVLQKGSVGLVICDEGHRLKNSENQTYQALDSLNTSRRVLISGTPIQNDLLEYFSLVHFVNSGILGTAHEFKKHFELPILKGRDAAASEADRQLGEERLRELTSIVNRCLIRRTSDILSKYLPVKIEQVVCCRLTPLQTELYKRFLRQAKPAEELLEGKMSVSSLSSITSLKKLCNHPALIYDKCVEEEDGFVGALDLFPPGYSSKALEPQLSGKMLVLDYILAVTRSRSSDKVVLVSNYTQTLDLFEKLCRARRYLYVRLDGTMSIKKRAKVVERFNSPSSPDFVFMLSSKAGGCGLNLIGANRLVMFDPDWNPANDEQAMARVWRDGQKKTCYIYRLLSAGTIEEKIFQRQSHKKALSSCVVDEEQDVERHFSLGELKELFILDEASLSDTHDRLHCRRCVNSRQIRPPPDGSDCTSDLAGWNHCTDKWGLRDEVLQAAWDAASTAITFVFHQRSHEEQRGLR

[5] = molecular target: T4, DNA repair protein RAD52 homolog (Homo sapiens, UniProt P43351); format: functional, biochemical
T4 sequence (P43351 whole entry): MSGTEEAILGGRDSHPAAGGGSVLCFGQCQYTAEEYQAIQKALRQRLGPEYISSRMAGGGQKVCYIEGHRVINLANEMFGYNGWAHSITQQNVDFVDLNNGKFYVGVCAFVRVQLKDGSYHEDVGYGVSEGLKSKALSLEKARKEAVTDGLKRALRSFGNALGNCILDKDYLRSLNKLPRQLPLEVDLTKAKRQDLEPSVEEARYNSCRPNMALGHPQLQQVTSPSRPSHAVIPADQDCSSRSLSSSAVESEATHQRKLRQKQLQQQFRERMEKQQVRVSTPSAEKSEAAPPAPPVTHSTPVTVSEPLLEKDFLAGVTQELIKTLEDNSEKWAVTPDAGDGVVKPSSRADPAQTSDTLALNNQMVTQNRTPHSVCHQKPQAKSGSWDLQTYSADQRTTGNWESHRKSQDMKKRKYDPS

Cysteine protease ATG4B = molecular target: T5, Cysteine protease ATG4B (Homo sapiens, UniProt Q9Y4P1); format: functional;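 note: Fluorescence-based dose-response confirmation assay measuring inhibition of ATG4B activity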
T5 sequence (Q9Y4P1 whole entry): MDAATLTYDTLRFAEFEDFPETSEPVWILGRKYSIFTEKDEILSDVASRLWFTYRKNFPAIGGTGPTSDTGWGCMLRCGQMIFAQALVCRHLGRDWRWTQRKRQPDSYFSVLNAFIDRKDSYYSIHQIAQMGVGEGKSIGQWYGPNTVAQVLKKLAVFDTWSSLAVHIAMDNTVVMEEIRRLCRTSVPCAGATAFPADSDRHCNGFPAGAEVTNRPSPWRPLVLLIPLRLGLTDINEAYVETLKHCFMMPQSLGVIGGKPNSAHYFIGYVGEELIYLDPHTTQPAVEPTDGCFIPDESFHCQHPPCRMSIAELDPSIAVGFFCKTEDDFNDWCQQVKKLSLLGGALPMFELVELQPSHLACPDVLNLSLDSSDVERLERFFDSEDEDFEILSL

Phospholipase A2 = Phospholipase A2 (Homo sapiens, UniProt P04054); format: functional;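 note: confirmatory dose-response counterscreen on phospholipase A2, testing hits that came from an ultra-high-throughput screen for ATG4B inhibitors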
Phospholipase A2, sequence (P04054 whole entry): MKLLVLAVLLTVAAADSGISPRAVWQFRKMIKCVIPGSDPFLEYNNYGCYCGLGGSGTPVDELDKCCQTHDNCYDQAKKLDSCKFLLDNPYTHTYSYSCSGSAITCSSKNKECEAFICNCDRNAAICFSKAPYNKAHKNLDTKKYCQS

[6] = Luminescence Cell-Based Dose Confirmation HTS to Identify Activators of 5'UTR Stem-Loop Driven Alpha-Synuclein mRNA Translation in H4 Neuroglioblastoma Cells. [Related pubchem assays: 1829 (Project Summary), 1814 (Primary HTS)]; format: functional
[7] = Luminescence Cell-Based Dose Response HTS to Identify Activators of Luciferase Translation or Activity in H4 […] Cells. [Related pubchem assays: 1829 (Project Summary), 1814 (Primary HTS)]; format: functional
H4 = test: Luminescence Cell-Based Dose Response HTS to Identify Activators of 5'UTR Stem-Loop Driven Prion Protein mRNA Translation in H4 Neuroglioblastoma Cells. [Related pubchem assays: 1829 (Project Summary), 1814 (Primary HTS)]; format: functional; settings: Homo sapiens
[8] = molecular target: SWI/SNF-related matrix-associated actin-dependent regulator of chromatin subfamily A member 2 (Homo sapiens, UniProt P51531); test: Luminescence-based cell-based high throughput dose response assay to identify activators of the function of SWI/SNF related, matrix associated, actin dependent regulator of chromatin, subfamily a, member 2 (SMARCA2, BRM).; format: functional
SWI/SNF-related matrix-associated actin-dependent regulator of chromatin subfamily A member 2, sequence (P51531 whole entry): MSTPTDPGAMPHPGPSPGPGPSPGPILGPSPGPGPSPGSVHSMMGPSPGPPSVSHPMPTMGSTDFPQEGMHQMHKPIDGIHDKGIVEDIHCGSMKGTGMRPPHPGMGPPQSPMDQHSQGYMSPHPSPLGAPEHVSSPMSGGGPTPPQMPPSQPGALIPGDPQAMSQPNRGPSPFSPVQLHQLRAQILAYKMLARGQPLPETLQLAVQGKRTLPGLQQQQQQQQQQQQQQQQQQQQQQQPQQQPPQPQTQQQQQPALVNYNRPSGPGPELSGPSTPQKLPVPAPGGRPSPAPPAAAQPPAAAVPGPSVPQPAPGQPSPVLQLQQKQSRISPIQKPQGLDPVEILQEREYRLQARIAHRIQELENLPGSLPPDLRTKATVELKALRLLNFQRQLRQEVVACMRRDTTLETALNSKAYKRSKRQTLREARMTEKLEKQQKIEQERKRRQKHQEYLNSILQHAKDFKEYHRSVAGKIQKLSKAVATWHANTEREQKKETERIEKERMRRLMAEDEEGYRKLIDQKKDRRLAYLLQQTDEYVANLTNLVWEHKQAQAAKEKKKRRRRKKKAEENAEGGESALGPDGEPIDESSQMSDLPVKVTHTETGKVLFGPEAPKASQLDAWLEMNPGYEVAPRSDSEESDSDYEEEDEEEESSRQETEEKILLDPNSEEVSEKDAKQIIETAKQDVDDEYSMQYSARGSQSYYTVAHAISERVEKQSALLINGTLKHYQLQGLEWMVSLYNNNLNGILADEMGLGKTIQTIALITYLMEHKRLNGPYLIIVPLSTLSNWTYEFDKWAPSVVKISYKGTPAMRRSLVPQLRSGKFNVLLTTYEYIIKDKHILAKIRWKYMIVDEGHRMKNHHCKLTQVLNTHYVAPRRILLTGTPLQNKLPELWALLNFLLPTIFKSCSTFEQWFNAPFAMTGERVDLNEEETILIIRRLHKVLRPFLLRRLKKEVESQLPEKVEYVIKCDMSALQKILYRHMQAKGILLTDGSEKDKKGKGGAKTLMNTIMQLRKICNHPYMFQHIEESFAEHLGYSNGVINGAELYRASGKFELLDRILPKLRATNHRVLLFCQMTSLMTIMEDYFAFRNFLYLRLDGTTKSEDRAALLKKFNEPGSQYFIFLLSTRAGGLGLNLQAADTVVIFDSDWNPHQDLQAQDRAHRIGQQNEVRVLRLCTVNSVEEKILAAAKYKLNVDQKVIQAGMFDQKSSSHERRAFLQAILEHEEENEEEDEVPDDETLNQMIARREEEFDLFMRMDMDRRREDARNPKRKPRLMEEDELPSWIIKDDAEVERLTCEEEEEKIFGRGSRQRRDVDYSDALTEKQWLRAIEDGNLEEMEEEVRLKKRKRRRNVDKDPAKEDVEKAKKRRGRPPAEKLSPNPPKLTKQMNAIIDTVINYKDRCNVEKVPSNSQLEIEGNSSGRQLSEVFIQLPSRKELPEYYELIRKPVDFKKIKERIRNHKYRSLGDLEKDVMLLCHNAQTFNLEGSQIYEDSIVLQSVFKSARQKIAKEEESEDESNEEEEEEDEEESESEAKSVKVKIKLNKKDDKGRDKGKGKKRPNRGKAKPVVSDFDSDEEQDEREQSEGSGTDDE

[9] = Counterscreen for activators of the function of SWI/SNF related, matrix associated, actin dependent regulator of chromatin, subfamily a, member 2 (SMARCA2, BRM): Luminescence-based cell-based high throughput dose response assay to identify non-selective compounds using the VP16 reporter assay.; format: functional
[10] = molecular target: T6, Corticotropin-releasing factor receptor 2/Corticotropin-releasing factor-binding protein (Homo sapiens, UniProt P24387+Q13324); test: Dose Response confirmation of uHTS hits for small molecule antagonists of the CRF-binding protein and CRF-R2 receptor complex.; format: functional; settings: read-out: IC50_Mean
T6 sequence (Q13324 whole entry): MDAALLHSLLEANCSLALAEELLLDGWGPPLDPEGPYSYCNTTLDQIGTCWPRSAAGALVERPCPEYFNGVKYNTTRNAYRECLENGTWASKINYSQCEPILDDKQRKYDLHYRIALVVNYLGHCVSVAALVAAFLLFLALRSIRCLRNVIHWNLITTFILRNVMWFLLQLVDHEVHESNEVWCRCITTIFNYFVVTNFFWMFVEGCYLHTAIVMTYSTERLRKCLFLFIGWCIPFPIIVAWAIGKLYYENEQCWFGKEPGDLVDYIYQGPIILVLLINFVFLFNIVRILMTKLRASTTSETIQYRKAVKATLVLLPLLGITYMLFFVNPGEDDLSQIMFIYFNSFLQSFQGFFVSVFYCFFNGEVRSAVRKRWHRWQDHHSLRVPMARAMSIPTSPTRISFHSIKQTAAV
T6 sequence (P24387 whole entry): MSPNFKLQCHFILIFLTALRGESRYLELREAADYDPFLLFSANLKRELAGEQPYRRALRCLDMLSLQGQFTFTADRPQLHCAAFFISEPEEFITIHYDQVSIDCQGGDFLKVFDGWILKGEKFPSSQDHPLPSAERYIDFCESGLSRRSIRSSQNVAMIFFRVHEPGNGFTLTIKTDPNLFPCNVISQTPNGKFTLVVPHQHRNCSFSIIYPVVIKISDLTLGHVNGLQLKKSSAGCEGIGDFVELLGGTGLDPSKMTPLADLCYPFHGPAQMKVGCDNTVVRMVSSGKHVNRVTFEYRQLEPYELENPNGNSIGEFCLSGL

[11] = molecular target: T6, Corticotropin-releasing factor receptor 2/Corticotropin-releasing factor-binding protein; test: activators of CRF receptor 2 with binding protein – uHTS hits, confirmation (AID 602473); format: functional; settings: read-out: EC50_Mean
[12] = molecular target: Arf-GAP with SH3 domain, ANK repeat and PH domain-containing protein 1 (Homo sapiens, UniProt Q9ULH1); format: functional;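 note: biochemical fluorescence polarization dose–response screen measuring inhibition of ASAP1; ASAP1 GAP domain stimulating GTP hydrolysis by truncated human ARF1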
Arf-GAP with SH3 domain, ANK repeat and PH domain-containing protein 1, sequence (Q9ULH1 whole entry, the tested form may be a part): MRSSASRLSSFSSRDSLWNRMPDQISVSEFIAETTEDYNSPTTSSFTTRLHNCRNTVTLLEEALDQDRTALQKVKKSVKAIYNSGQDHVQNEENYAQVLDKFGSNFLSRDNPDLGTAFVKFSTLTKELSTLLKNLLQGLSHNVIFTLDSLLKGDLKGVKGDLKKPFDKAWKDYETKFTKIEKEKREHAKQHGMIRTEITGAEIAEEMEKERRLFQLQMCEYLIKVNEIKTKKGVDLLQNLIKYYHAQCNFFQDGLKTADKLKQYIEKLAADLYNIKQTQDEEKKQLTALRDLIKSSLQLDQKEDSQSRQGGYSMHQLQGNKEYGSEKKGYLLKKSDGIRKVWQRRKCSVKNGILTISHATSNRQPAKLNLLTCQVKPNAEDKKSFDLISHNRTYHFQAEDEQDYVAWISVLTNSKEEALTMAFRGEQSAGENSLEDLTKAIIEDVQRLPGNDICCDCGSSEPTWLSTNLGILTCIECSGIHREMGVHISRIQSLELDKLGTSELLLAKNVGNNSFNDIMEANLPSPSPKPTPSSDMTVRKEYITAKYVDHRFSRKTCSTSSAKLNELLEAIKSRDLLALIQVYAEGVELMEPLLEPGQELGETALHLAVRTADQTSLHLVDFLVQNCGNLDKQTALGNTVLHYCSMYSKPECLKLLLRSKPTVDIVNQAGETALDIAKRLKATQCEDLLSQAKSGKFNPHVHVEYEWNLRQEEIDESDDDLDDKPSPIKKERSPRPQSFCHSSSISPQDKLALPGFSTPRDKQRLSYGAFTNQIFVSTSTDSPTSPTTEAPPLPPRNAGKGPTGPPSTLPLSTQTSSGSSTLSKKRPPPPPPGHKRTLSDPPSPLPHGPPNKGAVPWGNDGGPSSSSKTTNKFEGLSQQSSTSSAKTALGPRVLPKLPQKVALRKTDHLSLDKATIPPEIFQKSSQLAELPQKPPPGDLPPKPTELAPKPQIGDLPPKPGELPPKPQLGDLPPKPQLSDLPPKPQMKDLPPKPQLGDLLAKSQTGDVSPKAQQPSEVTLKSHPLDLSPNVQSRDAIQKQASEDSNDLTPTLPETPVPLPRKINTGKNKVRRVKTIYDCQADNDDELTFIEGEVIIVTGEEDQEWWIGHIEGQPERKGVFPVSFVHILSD

[13] = Luminescence Cell-Based Dose Retest to Confirm Inhibitors of Cancer Stem Cells. [Related pubchem assays (depositor defined):AID2717, AID2721]; format: functional; settings: Homo sapiens
[14] = viability loss of HMLE_sh_eGFP cells – cell-based, luminescence, counter-screen for HMLE_sh_ECad selective toxicity project, dose response (AID 463074); format: functional, Homo sapiens;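 note: HMLE human mammary epithelial cells expressing control shRNA against eGFP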
[15] = molecular target: Heat shock protein HSP 90-alpha (Homo sapiens, UniProt P07900); format: functional, organism-based
[16] = molecular target: T7, Rac GTPase-activating protein 1 (Homo sapiens, UniProt Q9H0H5); test: blockers of MgcRacGAP-driven Rac1 GTP hydrolysis – biochemical, ADP Hunter fluorescence, primary and confirmatory, confirmation (AID 624330); format: functional
T7 sequence (Q9H0H5 whole entry): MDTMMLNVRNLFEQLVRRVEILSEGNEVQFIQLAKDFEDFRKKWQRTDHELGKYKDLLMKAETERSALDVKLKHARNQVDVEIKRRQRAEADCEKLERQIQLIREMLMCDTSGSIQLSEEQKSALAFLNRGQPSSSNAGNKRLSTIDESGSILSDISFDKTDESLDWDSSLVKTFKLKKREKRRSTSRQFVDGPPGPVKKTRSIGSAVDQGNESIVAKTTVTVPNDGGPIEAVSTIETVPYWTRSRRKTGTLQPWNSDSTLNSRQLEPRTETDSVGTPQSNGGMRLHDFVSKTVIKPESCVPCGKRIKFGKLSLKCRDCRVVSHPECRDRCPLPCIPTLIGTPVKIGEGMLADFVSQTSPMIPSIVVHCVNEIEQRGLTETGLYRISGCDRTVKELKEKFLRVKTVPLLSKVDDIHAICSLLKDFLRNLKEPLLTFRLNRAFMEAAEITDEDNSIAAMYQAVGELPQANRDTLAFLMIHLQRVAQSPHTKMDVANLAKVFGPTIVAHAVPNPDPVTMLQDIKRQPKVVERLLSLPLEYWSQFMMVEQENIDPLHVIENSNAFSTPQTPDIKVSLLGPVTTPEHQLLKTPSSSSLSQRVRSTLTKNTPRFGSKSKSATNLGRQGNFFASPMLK

CN1/C(=C\C=N\c2ccccc2)C(C)(C)c2ccccc21
IC50 (Protein Wnt-3a): 7.05 µM (active)

CCOC(=O)c1ccccc1N1C(=O)C2Sc3nc(O)sc3C(/C=C/c3ccccc3)C2C1=O (configuration not stated)
IC50 [1]: 12.2 µM (active)
IC50 [2]: 45.9 µM (active)

O=C(NCCNc1ccnc2cc(Cl)ccc12)c1ccccc1F
EC50 [3]: 39.7 µM (active)
IC50 (Protein Wnt-3a): 3.93 µM (active)

CCN(CC)CCN1CCN(c2cncc(-c3cccc(N)c3)n2)CC1
AC50 [4]: 100 µM (inactive)
AC50 [5]: 1.56 µM (active)

O=C(O)c1cccc(CSc2nc(-c3ccc(Cl)cc3)cc(C(F)(F)F)n2)c1
IC50 (Cysteine protease ATG4B): 12.8 µM (active)
IC50 (Phospholipase A2): 11.4 µM (active)

O=C(NC(=S)NCCC1=CCCCC1)c1ccc(Br)o1
EC50 [6]: 83 µM (active)
EC50 [7]: 15.1 µM (active)
EC50 (H4): 18.1 µM (active)
IC50 (Cysteine protease ATG4B): 15.9 µM (active)
IC50 (Phospholipase A2): 9.44 µM (active)

C=COC(=O)c1sc2nc(C)cc(C)c2c1N
EC50 [8]: > 91.1 µM (inactive)
EC50 [9]: > 91.1 µM (inactive)

O=C(Nc1nnc(SCc2ccc(F)cc2)s1)C1Cc2ccccc2CN1C(=O)c1ccco1 (configuration not stated)
IC50 [1]: 13.4 µM (active)
IC50 [2]: 34 µM (active)

COc1ccc(-n2nnnc2SCC(=O)c2ccc(OC)c(OC)c2)cc1
IC50 [10]: > 47.1 µM (inactive)
EC50 [11]: > 53 µM (inactive)
IC50 [12]: 33 µM (inactive)

Cc1ccc(N2C(=O)CC(N(CCc3ccccc3)C(=S)Nc3ccc(N(C)C)cc3)C2=O)cc1 (configuration not stated)
AC50 [13]: 5.65 µM (active)
AC50 [14]: 154 µM (active)
IC50 [1]: 36.8 µM (active)
IC50 [2]: 77.7 µM (active)

COc1ccc2c(c1)CCc1c(C(=O)N3CCc4ccccc4C3)noc1-2
AC50 [15]: 6.29 µM (active)

O=C(Cn1cccc1C(=O)c1ccccc1)NCCC1=CCCCC1
IC50 (Cysteine protease ATG4B): 20.1 µM (inactive)
IC50 (Phospholipase A2): 11.7 µM (active)

O=C1C=CC(=O)N1c1ccc(Nc2ccccc2)cc1
AC50 [15]: 1.85 µM (active)
IC50 [16]: 27 µM (active)

COC(=O)c1cc(NC(=O)c2ccc(Cn3cc(Cl)cn3)o2)cc(C(=O)OC)c1
IC50 [12]: 41 µM (inactive)

CCN(CC)CCOc1c(Br)ccc2c1sc1nc3n(c(=O)c12)CCC3
AC50 [4]: 8.15 µM (active)
